ChEMBL document CHEMBL5226342, “Novel Reversible-Binding PET Ligands for Imaging Monoacylglycerol Lipase Based on the Piperazinyl Azetidine Scaffold” (J Med Chem, 2021)
The source made the active and inactive calls. The calls are words filed in the database; no cut-off is given here.

Tests used:
[1] = Drug uptake in iv dosed rhesus monkey pons by PET imaging based analysis; format: ADME, organism-based, Macaca mulatta; conditions: in vivo
[2] = Drug uptake in iv dosed CD-1 mouse lung measured after 60 mins by Ex vivo whole body biodistribution based analysis; format: ADME, organism-based; conditions: 1 h
[3] = Drug uptake in iv dosed rhesus monkey striatum measured after 60 mins by PET imaging based analysis; format: ADME, organism-based, Macaca mulatta; conditions: in vivo, 1 h
[4] = Drug uptake in iv dosed rhesus monkey brain by PET imaging based analysis; format: ADME, organism-based, Macaca mulatta; conditions: in vivo
[5] = Metabolic stability of the compound in iv dosed Sprague-Dawley rat plasma assessed as parent compound remaining measured after 30 mins by radio-HPLC analysis; format: ADME, organism-based; conditions: read-out: Stability
[6] = Drug uptake in iv dosed CD-1 mouse pancreas measured after 60 mins by Ex vivo whole body biodistribution based analysis; format: ADME, organism-based; conditions: 1 h
[7] = Drug uptake in iv dosed Sprague-Dawley rat striatum measured for 90 mins by PET imaging based analysis; format: ADME, organism-based; conditions: in vivo, 1.5 h
[8] = Drug uptake in iv dosed Sprague-Dawley rat hippocampus measured for 90 mins by PET imaging based analysis; format: ADME, organism-based; conditions: in vivo, 1.5 h
[9] = Drug uptake in iv dosed rhesus monkey cerebellum by PET imaging based analysis; format: ADME, organism-based, Macaca mulatta; conditions: in vivo
[10] = Drug uptake in iv dosed CD-1 mouse heart measured after 60 mins by Ex vivo whole body biodistribution based analysis; format: ADME, organism-based; conditions: 1 h
[11] = Drug uptake in iv dosed rhesus monkey cortex by PET imaging based analysis; format: ADME, organism-based, Macaca mulatta; conditions: in vivo
[12] = Drug uptake in iv dosed Sprague-Dawley rat pons measured for 90 mins by PET imaging based analysis; format: ADME, organism-based; conditions: in vivo, 1.5 h
[13] = Metabolic stability of the compound in iv dosed Sprague-Dawley rat plasma assessed as parent compound remaining measured after 60 mins by radio-HPLC analysis; format: ADME, organism-based; conditions: read-out: Stability
[14] = Metabolic stability of the compound in iv dosed Sprague-Dawley rat brain assessed as parent compound remaining measured after 30 mins by radio-HPLC analysis; format: ADME, organism-based; conditions: read-out: Stability
[15] = Drug uptake in mouse brain treated with MAGL inhibitor, JNJ-42226314 at 15 mins post-drug administration by PET imaging based analysis; format: ADME, tissue-based; conditions: in vivo, 0.25 h
[16] = Drug uptake in iv dosed Sprague-Dawley rat cerebral cortex measured for 90 mins by PET imaging based analysis; format: ADME, organism-based; conditions: in vivo, 1.5 h
[17] = Drug uptake in iv dosed CD-1 mouse small intestine measured after 60 mins by Ex vivo whole body biodistribution based analysis; format: ADME, organism-based; conditions: 1 h
[18] = Drug uptake in iv dosed Sprague-Dawley rat cerebellum measured for 90 mins by PET imaging based analysis; format: ADME, organism-based; conditions: in vivo, 1.5 h
[19] = Drug uptake in iv dosed rhesus monkey hippocampus measured after 60 mins by PET imaging based analysis; format: ADME, organism-based, Macaca mulatta; conditions: in vivo, 1 h
[20] = Drug uptake in iv dosed rhesus monkey cortex measured after 60 mins by PET imaging based analysis; format: ADME, organism-based, Macaca mulatta; conditions: in vivo, 1 h
[21] = Drug uptake in iv dosed rhesus monkey hippocampus by PET imaging based analysis; format: ADME, organism-based, Macaca mulatta; conditions: in vivo
[22] = Metabolic stability of the compound in iv dosed Sprague-Dawley rat brain assessed as parent compound remaining measured after 60 mins by radio-HPLC analysis; format: ADME, organism-based; conditions: read-out: Stability
[23] = Drug uptake in iv dosed rhesus monkey pons measured after 60 mins by PET imaging based analysis; format: ADME, organism-based, Macaca mulatta; conditions: in vivo, 1 h
[24] = Drug uptake in iv dosed rhesus monkey striatum by PET imaging based analysis; format: ADME, organism-based, Macaca mulatta; conditions: in vivo
[25] = Drug uptake in iv dosed CD-1 mouse liver measured after 60 mins by Ex vivo whole body biodistribution based analysis; format: ADME, organism-based; conditions: 1 h
[26] = Drug uptake in iv dosed CD-1 mouse kidney measured after 60 mins by Ex vivo whole body biodistribution based analysis; format: ADME, organism-based; conditions: 1 h
[27] = Drug uptake in iv dosed rhesus monkey cerebellum measured after 60 mins by PET imaging based analysis; format: ADME, organism-based, Macaca mulatta; conditions: in vivo, 1 h
[28] = molecular target: T1, Monoglyceride lipase (Rattus norvegicus) (UniProt Q8R431); test: Binding affinity to MAGL in rat hippocampus incubated for 1 hr in presence of MAGL inhibitor, (1-(4-fluorophenyl)-1H-indol-5-yl)(3-(4-(pyrimidin-2-yl)piperazin-1-yl)azetidin-1-yl)methanone by autoradiography; format: tissue-based; conditions: tested as the 18F-labelled form
T1 sequence (whole entry): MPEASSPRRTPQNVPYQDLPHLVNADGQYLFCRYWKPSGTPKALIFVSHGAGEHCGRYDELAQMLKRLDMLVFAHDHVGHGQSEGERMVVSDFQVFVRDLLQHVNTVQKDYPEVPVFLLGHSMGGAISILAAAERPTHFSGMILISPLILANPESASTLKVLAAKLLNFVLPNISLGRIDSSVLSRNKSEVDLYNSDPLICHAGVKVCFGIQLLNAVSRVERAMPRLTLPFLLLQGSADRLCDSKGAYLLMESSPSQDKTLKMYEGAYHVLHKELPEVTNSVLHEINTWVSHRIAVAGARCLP

[29] = molecular target: CaV1.2 (voltage-dependent L-type calcium channel subunit alpha-1C) (Homo sapiens, UniProt Q13936); test: Inhibition of human CaV1.2 at 10 uM
[30] = molecular target: T2, Lysophosphatidylserine lipase ABHD12 (Mus musculus) (UniProt Q99LR1); test: Displacement of FP-rhodamine from ABHD12 in mouse brain membrane fraction preincubated for 30 mins followed by FP-rhodhamine addition for 10 mins by Activity-Based Protein Profiling analysis; format: cell membranes; conditions: time 40.0 min
T2 sequence (whole entry): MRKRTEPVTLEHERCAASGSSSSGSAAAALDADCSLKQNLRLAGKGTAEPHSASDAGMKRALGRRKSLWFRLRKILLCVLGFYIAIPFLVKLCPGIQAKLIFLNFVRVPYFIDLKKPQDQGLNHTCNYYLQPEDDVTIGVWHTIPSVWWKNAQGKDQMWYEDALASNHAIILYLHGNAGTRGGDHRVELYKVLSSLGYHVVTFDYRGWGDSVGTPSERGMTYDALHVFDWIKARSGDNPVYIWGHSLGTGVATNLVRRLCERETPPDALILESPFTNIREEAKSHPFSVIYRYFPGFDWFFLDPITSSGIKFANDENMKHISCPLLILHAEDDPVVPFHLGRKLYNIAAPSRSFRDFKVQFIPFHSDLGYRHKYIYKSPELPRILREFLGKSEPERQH

[31] = molecular target: T3, Monoacylglycerol lipase ABHD6 (Mus musculus) (UniProt Q8R2Y0); test: Displacement of FP-rhodamine from ABHD6 in mouse brain membrane fraction preincubated for 30 mins followed by FP-rhodhamine addition for 10 mins by Activity-Based Protein Profiling analysis; format: cell membranes; conditions: time 40.0 min
T3 sequence (whole entry): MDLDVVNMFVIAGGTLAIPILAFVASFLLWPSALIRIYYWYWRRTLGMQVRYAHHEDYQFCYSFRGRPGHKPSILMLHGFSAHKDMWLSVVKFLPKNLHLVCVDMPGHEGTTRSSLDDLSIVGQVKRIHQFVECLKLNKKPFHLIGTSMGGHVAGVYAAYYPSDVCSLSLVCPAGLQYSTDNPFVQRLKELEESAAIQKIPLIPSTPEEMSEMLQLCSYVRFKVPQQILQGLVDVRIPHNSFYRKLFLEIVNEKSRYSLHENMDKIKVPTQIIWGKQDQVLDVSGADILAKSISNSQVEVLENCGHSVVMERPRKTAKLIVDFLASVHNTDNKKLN

[32] = molecular target: T1, Monoglyceride lipase (Rattus norvegicus); test: Binding affinity to MAGL in rat striatum incubated for 1 hr in presence of MAGL inhibitor, (1-(4-fluorophenyl)-1H-indol-5-yl)(3-(4-(pyrimidin-2-yl)piperazin-1-yl)azetidin-1-yl)methanone by autoradiography; format: tissue-based; conditions: tested as the 18F-labelled form
[33] = Lipophilicity, logD of the compound by shake flask method; format: physicochemical; conditions: octanol/water
[34] = molecular target: hERG (KCNH2) (Homo sapiens, UniProt Q12809); test: Inhibition of human ERG at 10 uM; format: toxicity
[35] = molecular target: T1, Monoglyceride lipase (Rattus norvegicus); test: Binding affinity to MAGL in rat cortex incubated for 1 hr in presence of MAGL inhibitor, (1-(4-fluorophenyl)-1H-indol-5-yl)(3-(4-(pyrimidin-2-yl)piperazin-1-yl)azetidin-1-yl)methanone by autoradiography; format: tissue-based; conditions: tested as the 18F-labelled form
[36] = molecular target: T1, Monoglyceride lipase (Rattus norvegicus); test: Binding affinity to MAGL in rat thalamus incubated for 1 hr in presence of MAGL inhibitor, (1-(4-fluorophenyl)-1H-indol-5-yl)(3-(4-(pyrimidin-2-yl)piperazin-1-yl)azetidin-1-yl)methanone by autoradiography; format: tissue-based; conditions: tested as the 18F-labelled form
[37] = molecular target: T4, Neutral cholesterol ester hydrolase 1 (Mus musculus) (UniProt Q8BLF1); test: Displacement of FP-rhodamine from KIAA1363 in mouse brain membrane fraction preincubated for 30 mins followed by FP-rhodhamine addition for 10 mins by Activity-Based Protein Profiling analysis; format: cell membranes; conditions: time 40.0 min
T4 sequence (whole entry): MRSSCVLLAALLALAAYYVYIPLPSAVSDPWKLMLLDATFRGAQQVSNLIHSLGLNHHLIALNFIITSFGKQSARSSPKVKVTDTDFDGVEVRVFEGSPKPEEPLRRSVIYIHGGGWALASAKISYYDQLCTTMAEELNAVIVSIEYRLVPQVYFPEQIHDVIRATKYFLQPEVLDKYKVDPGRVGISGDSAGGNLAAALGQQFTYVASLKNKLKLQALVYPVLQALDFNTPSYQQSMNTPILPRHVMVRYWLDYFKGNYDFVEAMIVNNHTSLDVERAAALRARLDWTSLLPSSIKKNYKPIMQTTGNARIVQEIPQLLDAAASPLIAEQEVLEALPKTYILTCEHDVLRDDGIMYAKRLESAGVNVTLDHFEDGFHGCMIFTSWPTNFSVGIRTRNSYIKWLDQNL

[38] = molecular target: T5, Monoglyceride lipase (Mus musculus) (UniProt O35678); conditions: Brain, Membrane, dose 50.0 nM, time 35-210 min
T5 sequence (whole entry): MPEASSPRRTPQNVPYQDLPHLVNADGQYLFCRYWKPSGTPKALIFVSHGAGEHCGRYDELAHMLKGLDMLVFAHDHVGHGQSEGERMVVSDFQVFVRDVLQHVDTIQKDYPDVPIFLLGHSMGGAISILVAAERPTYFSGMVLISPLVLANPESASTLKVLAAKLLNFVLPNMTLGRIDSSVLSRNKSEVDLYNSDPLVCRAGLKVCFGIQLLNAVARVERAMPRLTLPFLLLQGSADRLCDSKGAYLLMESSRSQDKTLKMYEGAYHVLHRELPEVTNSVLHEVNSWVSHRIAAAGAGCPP

[39] = molecular target: T1, Monoglyceride lipase (Rattus norvegicus); test: Binding affinity to MAGL in rat cerebellum incubated for 1 hr in presence of MAGL inhibitor, (1-(4-fluorophenyl)-1H-indol-5-yl)(3-(4-(pyrimidin-2-yl)piperazin-1-yl)azetidin-1-yl)methanone by autoradiography; format: tissue-based; conditions: tested as the 18F-labelled form
[40] = molecular target: T6, Fatty-acid amide hydrolase 1 (Mus musculus) (UniProt O08914); test: Displacement of FP-rhodamine from FAAH in mouse brain membrane fraction preincubated for 30 mins followed by FP-rhodhamine addition for 10 mins by Activity-Based Protein Profiling analysis; format: cell membranes; conditions: time 40.0 min
T6 sequence (whole entry): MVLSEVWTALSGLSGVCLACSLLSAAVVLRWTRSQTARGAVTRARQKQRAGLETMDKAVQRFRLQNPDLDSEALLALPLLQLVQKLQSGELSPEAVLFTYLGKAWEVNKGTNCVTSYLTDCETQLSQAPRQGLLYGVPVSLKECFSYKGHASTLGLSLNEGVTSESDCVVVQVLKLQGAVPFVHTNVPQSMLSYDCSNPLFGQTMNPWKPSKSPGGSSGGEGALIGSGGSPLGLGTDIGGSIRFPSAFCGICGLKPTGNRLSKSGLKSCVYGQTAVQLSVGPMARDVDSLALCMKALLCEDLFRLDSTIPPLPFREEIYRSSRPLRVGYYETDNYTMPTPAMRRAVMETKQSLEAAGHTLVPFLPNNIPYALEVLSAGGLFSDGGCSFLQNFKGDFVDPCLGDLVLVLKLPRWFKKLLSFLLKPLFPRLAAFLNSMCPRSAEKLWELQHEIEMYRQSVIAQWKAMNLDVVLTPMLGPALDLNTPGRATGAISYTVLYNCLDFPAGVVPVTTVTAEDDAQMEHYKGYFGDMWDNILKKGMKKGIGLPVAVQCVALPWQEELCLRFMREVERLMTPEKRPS

CaV1.2 (voltage-dependent L-type calcium channel subunit alpha-1C), sequence (Q13936 whole entry): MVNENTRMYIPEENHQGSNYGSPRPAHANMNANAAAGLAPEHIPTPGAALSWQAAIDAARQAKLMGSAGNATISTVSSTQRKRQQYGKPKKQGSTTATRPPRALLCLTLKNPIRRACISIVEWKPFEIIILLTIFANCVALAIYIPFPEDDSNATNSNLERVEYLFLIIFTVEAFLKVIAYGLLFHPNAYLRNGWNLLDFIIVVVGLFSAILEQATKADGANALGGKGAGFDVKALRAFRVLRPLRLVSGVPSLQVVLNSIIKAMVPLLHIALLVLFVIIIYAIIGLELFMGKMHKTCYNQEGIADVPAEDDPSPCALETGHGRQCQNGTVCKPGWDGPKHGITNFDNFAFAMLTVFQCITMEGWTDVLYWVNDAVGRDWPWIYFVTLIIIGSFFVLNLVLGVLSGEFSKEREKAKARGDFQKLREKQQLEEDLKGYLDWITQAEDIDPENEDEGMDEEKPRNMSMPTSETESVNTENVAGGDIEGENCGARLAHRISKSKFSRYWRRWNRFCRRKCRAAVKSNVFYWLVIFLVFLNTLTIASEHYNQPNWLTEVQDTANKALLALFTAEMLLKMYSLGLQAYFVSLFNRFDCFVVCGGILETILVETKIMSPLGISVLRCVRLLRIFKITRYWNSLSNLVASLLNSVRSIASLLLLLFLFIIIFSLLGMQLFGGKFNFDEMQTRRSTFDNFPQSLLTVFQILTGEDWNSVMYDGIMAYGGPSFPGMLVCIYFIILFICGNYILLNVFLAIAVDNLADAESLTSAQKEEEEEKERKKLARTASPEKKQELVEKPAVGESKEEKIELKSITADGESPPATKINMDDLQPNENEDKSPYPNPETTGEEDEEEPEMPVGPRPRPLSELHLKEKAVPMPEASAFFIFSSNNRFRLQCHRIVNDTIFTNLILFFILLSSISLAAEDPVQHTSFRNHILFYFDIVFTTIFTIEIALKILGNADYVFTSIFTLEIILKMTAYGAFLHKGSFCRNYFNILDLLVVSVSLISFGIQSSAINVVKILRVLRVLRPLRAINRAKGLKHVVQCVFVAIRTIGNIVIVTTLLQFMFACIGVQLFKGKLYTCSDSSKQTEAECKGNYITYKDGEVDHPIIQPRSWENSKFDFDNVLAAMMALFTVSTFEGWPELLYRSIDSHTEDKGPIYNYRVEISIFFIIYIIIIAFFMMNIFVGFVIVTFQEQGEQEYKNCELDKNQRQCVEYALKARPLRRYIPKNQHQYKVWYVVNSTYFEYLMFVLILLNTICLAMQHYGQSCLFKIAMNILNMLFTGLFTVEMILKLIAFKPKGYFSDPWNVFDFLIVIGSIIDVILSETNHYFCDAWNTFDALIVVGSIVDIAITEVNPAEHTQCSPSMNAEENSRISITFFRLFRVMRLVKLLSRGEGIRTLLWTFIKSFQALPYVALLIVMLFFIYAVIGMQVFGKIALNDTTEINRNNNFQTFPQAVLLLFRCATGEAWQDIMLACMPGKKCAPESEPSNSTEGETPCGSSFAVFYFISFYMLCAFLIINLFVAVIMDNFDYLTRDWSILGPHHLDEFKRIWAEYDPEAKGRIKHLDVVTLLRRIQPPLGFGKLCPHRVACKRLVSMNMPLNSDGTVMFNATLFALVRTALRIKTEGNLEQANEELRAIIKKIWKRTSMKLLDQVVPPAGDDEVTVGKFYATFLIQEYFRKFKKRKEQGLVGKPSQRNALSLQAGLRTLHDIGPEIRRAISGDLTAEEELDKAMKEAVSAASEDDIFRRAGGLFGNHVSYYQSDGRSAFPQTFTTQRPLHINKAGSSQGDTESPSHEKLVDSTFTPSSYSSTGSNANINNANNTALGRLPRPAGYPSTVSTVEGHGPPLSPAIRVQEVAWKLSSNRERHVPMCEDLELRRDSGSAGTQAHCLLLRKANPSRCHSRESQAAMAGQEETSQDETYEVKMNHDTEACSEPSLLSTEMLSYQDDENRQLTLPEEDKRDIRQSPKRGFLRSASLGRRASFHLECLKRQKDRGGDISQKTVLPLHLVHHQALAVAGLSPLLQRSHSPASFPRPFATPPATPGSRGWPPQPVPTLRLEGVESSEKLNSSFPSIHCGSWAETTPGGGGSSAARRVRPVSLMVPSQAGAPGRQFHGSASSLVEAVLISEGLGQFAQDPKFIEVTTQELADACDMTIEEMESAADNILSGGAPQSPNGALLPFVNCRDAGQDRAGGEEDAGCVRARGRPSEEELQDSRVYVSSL
hERG (KCNH2), sequence (Q12809 whole entry): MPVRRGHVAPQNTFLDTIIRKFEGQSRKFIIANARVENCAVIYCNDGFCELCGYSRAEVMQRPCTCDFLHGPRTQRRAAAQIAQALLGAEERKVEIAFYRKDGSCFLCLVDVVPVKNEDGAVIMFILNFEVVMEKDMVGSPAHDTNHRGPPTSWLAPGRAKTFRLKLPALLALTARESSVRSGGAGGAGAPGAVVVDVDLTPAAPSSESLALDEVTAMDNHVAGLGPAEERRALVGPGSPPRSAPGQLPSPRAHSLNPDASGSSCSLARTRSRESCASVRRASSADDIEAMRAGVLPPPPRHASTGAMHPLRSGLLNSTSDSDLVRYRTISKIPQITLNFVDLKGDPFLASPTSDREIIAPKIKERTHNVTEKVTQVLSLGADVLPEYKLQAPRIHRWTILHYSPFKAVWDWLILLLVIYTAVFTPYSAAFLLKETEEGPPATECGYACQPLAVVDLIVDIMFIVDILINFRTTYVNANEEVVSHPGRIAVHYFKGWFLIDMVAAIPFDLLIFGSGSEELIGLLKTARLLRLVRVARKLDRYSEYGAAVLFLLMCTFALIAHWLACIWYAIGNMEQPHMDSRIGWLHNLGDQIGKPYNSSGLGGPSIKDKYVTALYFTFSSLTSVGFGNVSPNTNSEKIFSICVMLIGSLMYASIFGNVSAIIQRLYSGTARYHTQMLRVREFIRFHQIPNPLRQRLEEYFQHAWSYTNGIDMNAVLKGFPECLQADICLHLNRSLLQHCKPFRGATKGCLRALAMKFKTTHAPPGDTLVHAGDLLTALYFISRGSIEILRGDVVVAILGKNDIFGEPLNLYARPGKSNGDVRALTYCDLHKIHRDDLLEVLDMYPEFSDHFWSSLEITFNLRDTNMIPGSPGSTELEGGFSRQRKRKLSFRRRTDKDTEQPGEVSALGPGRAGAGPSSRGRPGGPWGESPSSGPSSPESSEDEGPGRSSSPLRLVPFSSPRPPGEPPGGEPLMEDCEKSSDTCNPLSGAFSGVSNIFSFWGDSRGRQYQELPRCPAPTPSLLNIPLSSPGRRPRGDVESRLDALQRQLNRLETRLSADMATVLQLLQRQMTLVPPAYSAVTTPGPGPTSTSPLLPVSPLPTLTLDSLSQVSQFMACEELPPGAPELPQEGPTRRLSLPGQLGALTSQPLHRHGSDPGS

Structure (SMILES): O=C(c1ccc2c(ccn2-c2ccc([18F])cc2)c1)N1CC(N2CCN(C(=O)c3nccs3)CC2)C1
- Drug uptake [1]: Active
- Drug uptake [2]: Not Active
- Drug uptake [3]: Not Active
- SUVmax [4]: 0.9
- remaining at 0.5 h [5]: 81%
- Drug uptake [6]: Not Active
- Drug uptake [7]: Active
- Drug uptake [8]: Active
- Drug uptake [9]: Active
- Drug uptake [10]: Not Active
- Drug uptake [11]: Active
- Drug uptake [12]: Active
- remaining at 1 h [13]: 56%
- remaining at 0.5 h [14]: 97%
- Drug uptake [15]: Not Active
- SUVmax [16]: 0.8
- Drug uptake [17]: Active
- Drug uptake [18]: Active
- Drug uptake [19]: Not Active
- Drug uptake [20]: Not Active
- Drug uptake [21]: Active
- remaining at 1 h [22]: 94%
- Drug uptake [23]: Not Active
- Drug uptake [24]: Active
- Drug uptake [25]: Active
- Drug uptake [26]: Not Active
- Drug uptake [27]: Not Active

Structure (SMILES): O=C(c1ccc2c(ccn2-c2ccc(F)cc2)c1)N1CC(N2CCN(c3ncccn3)CC2)C1
- Activity [28]: inactive
- inhibition at 10 µM [29]: < 50%
- inhibition [30]: inactive
- inhibition [31]: inactive
- Activity [32]: inactive
- logD [33]: 3.68
- inhibition at 10 µM [34]: < 50%
- Activity [35]: inactive
- Activity [36]: inactive
- inhibition [37]: inactive
- inhibition [38]: Active
- Activity [39]: inactive
- inhibition [40]: inactive
